Test results as given in ChEMBL document CHEMBL1122784, “Antitumor imidazotetrazines. 1. Synthesis and chemistry of 8-carbamoyl-3-(2-chloroethyl)imidazo[5,1-d]-1,2,3,5-tetrazin-4(3 H)-one , a novel broad-spectrum antitumor agent” (J Med Chem, 1984).

System: Mus musculus
Experiment: Compound was tested for mortality in L1210 leukemia implanted BDF1 mice on day 0 after ip administration of 12.5 mg/kg/day on day 1-9 out of 6 mice
Format: functional
Conditions: route intraperitoneal

For NC(=O)c1ncn2c(=O)n(CCCl)nnc12 [MITOZOLOMIDE], the Mortality was 0.
